Test results published in patent US20250144055A1, “METHOD AND COMPOSITION FOR REDUCING MYOPIA PROGRESSION” (THE HONG KONG POLYTECHNIC UNIVERSITY, priority 2023, published 2025).
Several values for one entry are separate records, joined by “and”; a condition that tells them apart may be missing. Equal entries are not always repeated. Where two headings read alike, the source gives them in different places.

What was measured:
[1] = body weight of unilateral LIM chicks after 7-day LIM; format: in vivo, White Leghorn chicks (Gallus gallus); conditions: after 7-day LIM (PN17), 74 μM intravitreal x4 days
Text: The present disclosure provides a method for reducing myopia progression by administering a therapeutically effective amount of celastrol via intravitreal injection to a vitreous or via a non-invasive route, such as topically to the eye, e.g., as an eye drop containing a therapeutically effective amount of celastrol administered to a cornea or conjunctiva of a subject's eye. […] Change of body weight before and after 7-day LIM and choroidal thickness of a uvea of the celastrol group after 2-hr removal of the lens from the unilateral LIM chicks following the 7-day LIM were also quantified to show no adverse side effect but an increase in choroidal thickness induced by a low-dose celastrol. […] For instance, if celastrol is administered via the intravitreal injection, based on the difference in vitreous volume between the animal model tested and the human being, the human equivalent dose of celastrol could be determined. Taking chicken's vitreous volume as an illustrative example, if the celastrol is administered at about 74 μM via intravitreal injection to the chicken's vitreous, assuming that the vitreous volume of a chicken in general is about 200 μl, based on an estimated human vitreous volume (about 4.5 ml), the human equivalent dose of celastrol via intravitreal injection is determined to be about 1.665 mM. […]

[2] = system: lens-induced myopia (LIM) chicks; experiment: unilateral lens-induced myopia (LIM) chick model, intravitreal injection; format: in vivo, White Leghorn chicks (Gallus gallus)
Procedure: To create a lens-induced myopia (LIM) animal model, concave lenses of −5 D were applied to the White Leghorn chicks (Gallus gallus), hatched from specific pathogen-free eggs (SPF, Jinan, China), until they were ten days old (PN10, baseline). All the animals were raised in standard cages at 25° C. with sufficient food and water daily under the 12 h:12 h light/dark cycle. The central ambient luminance over the cages was maintained at around 260 lux.
Turning to FIG. 1, starting from ten days old (PN10), the LIM chicks received four intravitreal injections in four consecutive days, i.e., PN10, PN11, PN12 and PN13 (s101). LIM chicks were randomly assigned to two groups, including LIM chicks (n=6) with vehicle injection (1% DMSO with 1% β-CDs) (101b) and LIM chicks (n=7) with celastrol injection (74 μM celastrol dissolved in 1% DMSO with 1% β-CDs) (101a), and no gender preference was selected in the experimental groupings. β-CDs were selected as a drug carrier of celastrol because of its doughnut-shaped cavities with hydrophilic outer and hydrophobic inner surfaces to form a complex with the celastrol to enhance the solubility, stability and permeation of celastrol in vivo. The freshly prepared solution (10 μl) was injected monocularly with a 0.3-mL syringe (31-gauge needle, BD Medical, Le Pont deClaix, France) into the vitreous through the sclera, choroid, and retina close to the margin of the upper orbit. Immediately following the first injection on PN10, the LIM chicks' right (or left) eyes were assigned to −5 D lenses (treated eyes 102a), and no lens was attached to the fellow eyes (control eyes 102b) (s102). The treated eyes 102a covered with lens in each LIM chick (unilateral LIM) received the subsequent celastrol injection 101a or vehicle 101b on PN11, PN12 and PN13, whereas there was no treatment for the contralateral (control) eye 102b.
After 7-day LIM (PN17), the lenses were removed for 2 hours (s103). The refractive error and ocular parameters were recorded separately at baseline (PN10), 7-day LIM (PN17), and after 2-hour recovery (PN17+2 hr) using the steak retinoscopy and high-frequency ultrasonography (s104). Refractive errors were detected using a streak retinoscope, and ocular parameters were measured using a high-frequency A-scan ultrasound system with a 30 MHz transducer (Panametrics, Inc., Waltham, MA), respectively, before and after treatments. The spherical equivalent (S.E.) was calculated from the refractive status (S.E.=spherical power+½ cylindrical power). Axial length (AL) was defined from the front of the cornea to the back of the vitreous chamber.
Biometric data obtained from unilateral LIM chicks treated with or without celastrol according to the scheme depicted in Example 1 and FIG. 1 were analyzed. First of all, after the 7-day lens treatment period (PN1, the interocular differences (differences between the lens-treated eyes and the contralateral fellow eyes) were calculated for the three ocular parameters (refractive error, vitreous chamber depth, and axial length), and the results are shown in FIGS. 2A-2C, respectively. Because choroid thickness change is believed to be an indicator of progression to myopia, the choroidal thickness was also measured after a 2-hour recovery, and the results are shown in FIG. 2D. The mean interocular differences and choroidal thickness changes are presented with ±SD. The significance between celastrol and vehicle groups was analyzed using an unpaired t-test with equal variance.

[3] = system: retinal ganglion cells (RGCs); conditions: cited from earlier work
[4] = system: neuroendocrine chromaffin cells; conditions: 1 μM celastrol; cited from earlier work

## CC1=C(O)C(=O)C=C2C1=CC=C1[C@@]2(C)CC[C@@]2(C)[C@@H]3C[C@](C)(C(=O)O)CC[C@]3(C)CC[C@]12C [celastrol]
[1]
  body weight compared with vehicle group: no retardation of growth regarding body weight
[2]; 74 μM celastrol, 10 μl intravitreal q.d. PN10-PN13, after 7-day LIM (PN17), lens-treated minus fellow eye, n=7
  interocular difference in refractive error (spherical equivalent), mean±SD: −1.68±2.03 D
[2]; 74 μM intravitreal x4 days, after 2-hour recovery from 7-day LIM (PN17+2 hr), P=0.072 vs vehicle
  choroidal thickness change, mean±SD: 65.98±20.89 μm
[2]; 74 μM intravitreal x4 days, after 7-day LIM (PN17), A-scan, P=0.054 vs vehicle
  interocular difference in axial length (AL), mean±SD: 0.088±0.109 mm
[2]; 74 μM intravitreal x4 days, after 7-day LIM (PN17), A-scan, n=7
  interocular difference in vitreous chamber depth (VCD), mean±SD: 0.190±0.105 mm
[2]; Gallus gallus, 168 h, celastrol group vs vehicle group, 74 μM intravitreal, 7-day LIM, read-out: inhibition of myopia based on refractive error data
  inhibition at 74 µM: ~46.3%
[2]; after 7-day LIM (PN17)
  averaged shift of relative myopia in interocular difference, vehicle group versus celastrol group (mean): −1.45 D
[2]; after 7-day LIM (PN17), P>0.05
  enlargement of VCD in vehicle group compared with celastrol group: 0.070 mm
  numerical elongation of AL in vehicle group compared with celastrol group (mean): 0.174 mm
[2]; celastrol group vs vehicle group, 74 μM intravitreal, 7-day LIM
  inhibition of myopia based on axial length data: ~66.4% and ~46.2%
[2]; intravitreal injection at the dose tested (74 μM)
  myopia progression: could suppress myopia progression
[3]; injection of 1 mg/kg celastrol
  increase in average number of retinal ganglion cells (RGCs) compared to controls: approximately 80%
[3]; injection of 5 mg/kg celastrol
  increase in average number of retinal ganglion cells (RGCs) compared to controls: ~78%
[4]
  increase in dopamine: 6 fold
